Earlier results, collected in patent US6627219B2, “Oily capsule preparation and the method for preparing same” (Pharmaceutical Industry Technology and Development Center, priority 2000, dated 2003).
Where two headings read alike, the source gives them in different places.

Tests used:
[1] = not given; remark: listed apart in the source

solubility in water: hardly soluble in water
stability ([1]; basic medium of a pH higher than 7): stable
stability ([1]; neutral or acid medium): easily degraded or denatured
SMILES: COc1ccc2[nH]c([S+]([O-])Cc3ncc(C)c(OC)c3C)nc2c1 (stereo not drawn) [Omeprazole, 5-methoxy-2(((4-methoxy-3,5-dimethyl-2-pyridinyl)methyl)sulfinyl)1H-benzimidazole]
